Reference: ChEMBL document CHEMBL5705896 (ACS Chem Biol, 2013)
pIC50, pKi: −log10 of the molar value.

Legend:
[1] = Inhibition of full length human N-terminal his tagged ABL (2 to 1130 end residues) expressed in baculovirus expression system using ABLtide as substrate at 10 uM by mobility shift assay relative to control; conditions: condition weaver syndrome
[2] = target: Tyrosine-protein kinase CSK (Homo sapiens) (UniProt P41240); test: Inhibition of full length human N-terminal GST tagged CSK (1 to 450 end residues) expressed in baculovirus expression system using Srctide as substrate at 10 uM by mobility shift assay relative to control
[3] = target: Epidermal growth factor receptor (Homo sapiens) (UniProt P00533); test: Inhibition of human cytoplasmic domain N-terminal GST tagged EGFR (669 to 1210 end residues) expressed in baculovirus expression system using Srctide as substrate at 10 uM by mobility shift assay relative to control
[4] = target: Ephrin type-A receptor 2 (Homo sapiens) (UniProt P29317); test: Inhibition of human cytoplasmic domain N-terminal GST tagged EPHA2 (572 to 976 end residues) expressed in baculovirus expression system using Blk/lyntide as substrate at 10 uM by mobility shift assay relative to control
[5] = target: Tyrosine-protein kinase ITK/TSK (Homo sapiens) (UniProt Q08881); test: Inhibition of human cytoplasmic domain N-terminal GST tagged ITK (2 to 620 end residues) expressed in baculovirus expression system using Srctide as substrate at 10 uM by mobility shift assay relative to control
[6] = target: Tyrosine-protein kinase SYK (Homo sapiens) (UniProt P43405); test: Inhibition of full length human N-terminal GST tagged SYK (1 to […] end residues) expressed in baculovirus expression system using Blk/lyntide as substrate at 10 uM by mobility shift assay relative to control
[7] = target: Angiopoietin-1 receptor (Homo sapiens) (UniProt Q02763); test: Inhibition of human cytoplasmic domain N-terminal GST tagged TIE2 (771 to 1124 end residues) expressed in baculovirus expression system using Blk/lyntide as substrate at 10 uM by mobility shift assay relative to control
[8] = target: Tyrosine-protein kinase receptor TYRO3 (Homo sapiens) (UniProt Q06418); test: Inhibition of human cytoplasmic domain N-terminal GST tagged TYRO3 (453 to 890 end residues) expressed in baculovirus expression system using CSKtide as substrate at 10 uM by mobility shift assay relative to control
[9] = target: Casein kinase I isoform epsilon (Homo sapiens) (UniProt P49674); test: Inhibition of human catalytic domain N-terminal GST tagged CK1epsilon (1 to 348 residues) expressed in baculovirus expression system using ck-tide as substrate at 10 uM by mobility shift assay relative to control
[10] = target: Mitogen-activated protein kinase kinase kinase kinase 4 (Homo sapiens) (UniProt O95819); test: Inhibition of human catalytic domain N-terminal GST tagged HGK (1 to 328 residues) expressed in baculovirus expression system using moesin-derived peptide as substrate at 10 uM by mobility shift assay relative to control
[11] = target: Mitogen-activated protein kinase 9 (Homo sapiens) (UniProt P45984); test: Inhibition of human catalytic domain N-terminal GST tagged JNK2 (1 to 364 residues) expressed in Escherichia coli expression system using modified Erktide as substrate at 10 uM by mobility shift assay relative to control
[12] = target: Mitogen-activated protein kinase 14 (Homo sapiens) (UniProt Q16539); test: Inhibition of truncated human N-terminal GST-tagged p38 alpha (9 to 352 residues) expressed in Escherichia coli expression system using modified Erktide as substrate at 10 uM by mobility shift assay relative to control
[13] = target: Serine/threonine-protein kinase PAK 2 (Homo sapiens) (UniProt Q13177); test: Inhibition of full length human N-terminal GST tagged PAK2 (1 to 524 end residues) expressed in baculovirus expression system using DAPK1tide as substrate at 10 uM by mobility shift assay relative to control
[14] = target: Serine/threonine-protein kinase pim-1 (Homo sapiens) (UniProt P11309); test: Inhibition of full length human N-terminal his-tagged PIM1 (1 to 313 end residues) expressed in baculovirus expression system using S6K2 peptide as substrate at 10 uM by mobility shift assay relative to control
[15] = target: Protein kinase C alpha type (Homo sapiens) (UniProt P17252); test: Inhibition of full length human N-terminal GST tagged PKC alpha (1 to 672 end residues) expressed in baculovirus expression system using PKC as peptide at 10 uM by mobility shift assay relative to control
[16] = target: 5-hydroxytryptamine receptor 5A (Homo sapiens) (UniProt P47898); test: Inhibition of 5-HT5A receptor (unknown origin) at 10 uM by radioligand binding assay relative to control
[17] = target: Alpha-1A adrenergic receptor (Homo sapiens) (UniProt P35348); test: Inhibition of Alpha1A receptor (unknown origin) at 10 uM by radioligand binding assay relative to control
[18] = target: Alpha-1B adrenergic receptor (Homo sapiens) (UniProt P35368); test: Inhibition of Alpha1B receptor (unknown origin) at 10 uM by radioligand binding assay relative to control
[19] = target: Alpha-2C adrenergic receptor (Homo sapiens) (UniProt P18825); test: Inhibition of Alpha2C receptor (unknown origin) at 10 uM by radioligand binding assay relative to control
[20] = target: D(3) dopamine receptor (Homo sapiens) (UniProt P35462); test: Inhibition of dopamine D3 receptor (unknown origin) at 10 uM by radioligand binding assay relative to control
[21] = target: Kappa-type opioid receptor (Homo sapiens) (UniProt P41145); test: Inhibition of KOR (unknown origin) at 10 uM by radioligand binding assay relative to control
[22] = target: Mu-type opioid receptor (Homo sapiens) (UniProt P35372); test: Inhibition of MOR (unknown origin) at 10 uM by radioligand binding assay relative to control
[23] = target: Translocator protein (Homo sapiens) (UniProt P30536); test: Inhibition of PBR (unknown origin) at 10 uM by radioligand binding assay relative to control
[24] = target: Sodium-dependent serotonin transporter (Homo sapiens) (UniProt P31645); test: Inhibition of SERT (unknown origin) at 10 uM by radioligand binding assay relative to control
[25] = target: Protein arginine N-methyltransferase 3 (Homo sapiens, UniProt O60678); test: Inhibition of PRMT3 (unknown origin) using [3H-SAM] as substrate incubated for 1 hr by scintillation proximity assay
[26] = target: Histone-lysine N-methyltransferase 2A (Homo sapiens, UniProt Q03164); test: Inhibition of MLL1 (unknown origin) using [3H-SAM] as substrate incubated for 1 hr by scintillation proximity assay
[27] = target: Histone-lysine N-methyltransferase KMT5B (Homo sapiens, UniProt Q4FZB7); test: Inhibition of SUV420H1 (unknown origin) using [3H-SAM] as substrate incubated for 1 hr by scintillation proximity assay
[28] = target: Sodium-dependent noradrenaline transporter (Homo sapiens, UniProt P23975)

## CCCc1cc(C)[nH]c(=O)c1CNC(=O)c1cc(-c2ccc(N3CCN(C(C)C)CC3)nc2)cc2c1cnn2C(C)C
[1]
  inhibition at 10 µM: -4%
[2]
  inhibition: -4%
[3]
  inhibition: -3%
[4]
  inhibition: -6%
[5]
  inhibition: -2%
[6]
  inhibition: -6%
[7]
  inhibition: -6%
[8]
  inhibition: -1%
[9]
  inhibition: -4%
[10]
  inhibition: -2%
[11]
  inhibition: 5%
[12]
  inhibition: 0%
[13]
  inhibition: 4%
[14]
  inhibition: 1%
[15]
  inhibition: -4%
[16]
  inhibition: 10%
[17]
  inhibition: 3%
[18]
  inhibition: 6%
[19]
  inhibition: 47%
[20]
  inhibition: 28%
[21]
  inhibition: 34%
[22]
  inhibition: 13%
[23]
  inhibition: 31%
[24]
  inhibition: 6%
[25]
  pIC50: < 4.00
[26]
  pIC50: < 4.00
[27]
  pIC50: < 4.00
[28]
  pKi: 5.82
